According to BindingDB's records for doi:10.1016/j.ejmech.2023.115410 (Jawaharlal Nehru University, 2023):

Assays:
[1] = Inhibition of avian Influenza A virus SN 33 (H1N1) neuraminidase infected in dog MDCK cells using MU-NANA as substrate assessed as reduction in viral replication incubated for 72 hrs by spectrofluorometric analysis
[2] = Inhibition of […] Influenza A Taiwan 3446 2002(H3N2) neuraminidase infected in dog MDCK cells using MU-NANA as substrate assessed as reduction in viral replication incubated for 72 hrs by spectrofluorometric analysis

Question: For `CC(=O)N[C@H]1[C@H]([C@H](O)[C@H](O)CO)OC(C(=O)O)=C[C@@H]1NC(=N)NC(=O)CCc1ccc2ccccc2c1`, which IC50 [1] is on record?
Answer: 75 nM

Question: What about the IC50 [2] of the same compound?
Answer: 67 nM

Question: What does the source list for `CC(=O)N[C@H]1[C@H]([C@H](O)[C@H](O)CO)OC(C(=O)O)=C[C@@H]1NC(=N)NC(=O)CSc1ccc2ccccc2c1`?
Answer: IC50 [1]: 20 nM; IC50 [2]: 25 nM
